ChEMBL document CHEMBL1157113, “Insulin-like growth factor-1 receptor (IGF-1R) kinase inhibitors: SAR of a series of 3-[6-(4-substituted-piperazin-1-yl)-4-methyl-1H-benzimidazol-2-yl]-1H-pyridine-2-one” (Bioorg Med Chem Lett, 2010)

What was measured:
Assay type in all cases: ADME, organism-based
[1] = AUC (0 to 4 hrs) in mouse at 20 mg/kg; set-up: time < 4 hr, dose 20 mg/kg; settings: plasma
[2] = Oral bioavailability in mouse at 75 mg/kg; settings: in vivo
[3] = Oral bioavailability in rat at 75 mg/kg; settings: in vivo
[4] = Total clearance in mouse at 5 mg/kg, iv and 75 mg/kg, po; settings: in vivo
[5] = Total clearance in rat at 5 mg/kg, iv and 75 mg/kg, po; settings: in vivo
[6] = Volume of distribution at steady state in mouse at 5 mg/kg, iv and 75 mg/kg, po; settings: in vivo, read-out: Vdss
[7] = Volume of distribution at steady state in rat at 5 mg/kg, iv and 75 mg/kg, po; settings: in vivo, read-out: Vdss
[8] = Half life in mouse at 5 mg/kg, iv and 75 mg/kg, po; settings: in vivo
[9] = Half life in rat at 5 mg/kg, iv and 75 mg/kg, po; settings: in vivo

Row | SMILES | AUC(0-t) at 4 h [1] [µM·h] | further results
1 | Cc1cc(N2CCN(CCCF)CC2)cc2[nH]c(-c3c(NC[C@@H](O)c4cccc(Cl)c4)cc[nH]c3=O)nc12 | 11.4 | –
2 | Cc1cc(N2CCN(CC#N)CC2)cc2[nH]c(-c3c(NC[C@@H](O)c4cccc(Cl)c4)cc[nH]c3=O)nc12 | 10.3 | –
3 | Cc1cc(N2CCNCC2)cc2[nH]c(-c3c(NC[C@@H](O)c4cccc(Cl)c4)cc[nH]c3=O)nc12 | 26.5 | –
4 | Cc1cc(N2CCN(CCF)CC2)cc2[nH]c(-c3c(NC[C@@H](O)c4cccc(Cl)c4)cc[nH]c3=O)nc12 | 17.7 | –
5 | Cc1cc(N2CCN(CC(=O)NCCF)CC2)cc2[nH]c(-c3c(NC[C@@H](O)c4cccc(Cl)c4)cc[nH]c3=O)nc12 | 1.4 | –
6 | Cc1cc(N2CCOCC2)cc2[nH]c(-c3c(NC[C@@H](O)c4cccc(Cl)c4)cc[nH]c3=O)nc12 | 50 | –
7 | Cc1cc(N2CCN(CCC#N)CC2)cc2nc(-c3c(NC[C@@H](O)c4cccc(Cl)c4)cc[nH]c3=O)[nH]c12 | 22.1 | –

More lines, main results first:

Row | AUC(0-t) at 4 h [1] [µM·h] | SMILES | further results
8 | 25.3 | CCOC(=O)N1CCN(c2cc(C)c3nc(-c4c(NC[C@@H](O)c5cccc(Cl)c5)cc[nH]c4=O)[nH]c3c2)CC1 | –
9 | 7.2 | Cc1cc(N2CCN(S(C)(=O)=O)CC2)cc2[nH]c(-c3c(NC[C@@H](O)c4cccc(Cl)c4)cc[nH]c3=O)nc12 | –
10 | 4.5 | Cc1cc(N2CCN(C(=O)CCCF)CC2)cc2[nH]c(-c3c(NC[C@@H](O)c4cccc(Cl)c4)cc[nH]c3=O)nc12 | –
11 | 1 | CCN1CCN(c2cc(C)c3nc(-c4c(NC[C@@H](O)c5cccc(Cl)c5)cc[nH]c4=O)[nH]c3c2)CC1 | –
12 | 11.1 | COCCN1CCN(c2cc(C)c3nc(-c4c(NC[C@@H](O)c5cccc(Cl)c5)cc[nH]c4=O)[nH]c3c2)CC1 | bioavailability [2]: 26%; bioavailability [3]: 26%; clearance [4]: 25.2 mL/min/kg; clearance [5]: 27.8 mL/min/kg; Vd [6]: 4.9 L/kg; Vd [7]: 2.9 L/kg; half-life [8]: 2.9 h; half-life [9]: 1.9 h
13 | 3.4 | Cc1cc(N2CCN(C)CC2)cc2[nH]c(-c3c(NC[C@@H](O)c4cccc(Cl)c4)cc[nH]c3=O)nc12 | –
14 | 1.6 | CNC(=O)CN1CCN(c2cc(C)c3nc(-c4c(NC[C@@H](O)c5cccc(Cl)c5)cc[nH]c4=O)[nH]c3c2)CC1 | –
15 | 57.1 | COC(=O)N1CCN(c2cc(C)c3nc(-c4c(NC[C@@H](O)c5cccc(Cl)c5)cc[nH]c4=O)[nH]c3c2)CC1 | –
16 | 3.1 | CC(=O)N1CCN(c2cc(C)c3nc(-c4c(NC[C@@H](O)c5cccc(Cl)c5)cc[nH]c4=O)[nH]c3c2)CC1 | –
17 | 8.3 | Cc1cc(N2CCN(C(=O)OC(C)(C)C)CC2)cc2[nH]c(-c3c(NC[C@@H](O)c4cccc(Cl)c4)cc[nH]c3=O)nc12 | –
